Experiments:
[1] = biological target: FLT3 (Homo sapiens, UniProt P36888); assay: KINOMEscan competition binding
Protocol: KINOMEscan™ is based on a competition binding assay that quantitatively measures the ability of a compound to compete with an immobilized, active-site directed ligand (Fabian et al. (2005) Nat. Biotechnol. 23, 329; Karaman et al. (2008) Nat. Biotechnol. 26, 127). The compound was screened at 10 μM, and results for primary screen binding interactions are reported as ‘% Ctrl’, where lower numbers indicate stronger hits. The results for kinases targets with a % Ctrl less than 30 can be seen in Table 2.
FLT3 is a receptor tyrosine kinase; its activating mutations are found in 30% human acute myeloid leukemia (AML)^5.

[2] = biological target: T1, BaF3-BCR/ABL (Homo sapiens, UniProt P00519); assay: Antiproliferative activity, kinase-dependent Ba/F3 cells (MTT/MTS); format: cell-based, murine; settings: 48 hours, cell viability, read-out: BCR/ABL IC50
T1 construct: fused on or other part: P11274 (Breakpoint cluster region protein)
Procedure, shortened: (§1)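 Murine Ba/F3 cells transformed with BCR/ABL (p210) or BCR/ABL-T315I, grown in RPMI/10% FCS without IL3, were seeded at 20,000 cells/well. Viability was read by MTT/MTS. IC50 is the concentration reducing viability to 50% of DMSO vehicle control.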

[3] = biological target: T2, BaF3-BCR/ABL-T315I (Homo sapiens, UniProt P00519, T315I, cells depend on it); assay: as above; format: cell-based, murine; settings: 48 hours, cell viability, read-out: BCR/ABL T315I IC50
T2 construct: fused on or other part: P11274 (Breakpoint cluster region protein)
Procedure, shortened: as §1

[4] = biological target: T3, BaF3-EML4-ALK (Homo sapiens, UniProt Q9UM73); assay: as above; format: cell-based, murine; settings: 48 hours, cell viability, read-out: EML4-ALK IC50
T3 construct: fused on or other part: Q9HC35 (Echinoderm microtubule-associated protein-like 4)
T3 sequence (Q9UM73 whole entry, change not shown, the tested form may be a part): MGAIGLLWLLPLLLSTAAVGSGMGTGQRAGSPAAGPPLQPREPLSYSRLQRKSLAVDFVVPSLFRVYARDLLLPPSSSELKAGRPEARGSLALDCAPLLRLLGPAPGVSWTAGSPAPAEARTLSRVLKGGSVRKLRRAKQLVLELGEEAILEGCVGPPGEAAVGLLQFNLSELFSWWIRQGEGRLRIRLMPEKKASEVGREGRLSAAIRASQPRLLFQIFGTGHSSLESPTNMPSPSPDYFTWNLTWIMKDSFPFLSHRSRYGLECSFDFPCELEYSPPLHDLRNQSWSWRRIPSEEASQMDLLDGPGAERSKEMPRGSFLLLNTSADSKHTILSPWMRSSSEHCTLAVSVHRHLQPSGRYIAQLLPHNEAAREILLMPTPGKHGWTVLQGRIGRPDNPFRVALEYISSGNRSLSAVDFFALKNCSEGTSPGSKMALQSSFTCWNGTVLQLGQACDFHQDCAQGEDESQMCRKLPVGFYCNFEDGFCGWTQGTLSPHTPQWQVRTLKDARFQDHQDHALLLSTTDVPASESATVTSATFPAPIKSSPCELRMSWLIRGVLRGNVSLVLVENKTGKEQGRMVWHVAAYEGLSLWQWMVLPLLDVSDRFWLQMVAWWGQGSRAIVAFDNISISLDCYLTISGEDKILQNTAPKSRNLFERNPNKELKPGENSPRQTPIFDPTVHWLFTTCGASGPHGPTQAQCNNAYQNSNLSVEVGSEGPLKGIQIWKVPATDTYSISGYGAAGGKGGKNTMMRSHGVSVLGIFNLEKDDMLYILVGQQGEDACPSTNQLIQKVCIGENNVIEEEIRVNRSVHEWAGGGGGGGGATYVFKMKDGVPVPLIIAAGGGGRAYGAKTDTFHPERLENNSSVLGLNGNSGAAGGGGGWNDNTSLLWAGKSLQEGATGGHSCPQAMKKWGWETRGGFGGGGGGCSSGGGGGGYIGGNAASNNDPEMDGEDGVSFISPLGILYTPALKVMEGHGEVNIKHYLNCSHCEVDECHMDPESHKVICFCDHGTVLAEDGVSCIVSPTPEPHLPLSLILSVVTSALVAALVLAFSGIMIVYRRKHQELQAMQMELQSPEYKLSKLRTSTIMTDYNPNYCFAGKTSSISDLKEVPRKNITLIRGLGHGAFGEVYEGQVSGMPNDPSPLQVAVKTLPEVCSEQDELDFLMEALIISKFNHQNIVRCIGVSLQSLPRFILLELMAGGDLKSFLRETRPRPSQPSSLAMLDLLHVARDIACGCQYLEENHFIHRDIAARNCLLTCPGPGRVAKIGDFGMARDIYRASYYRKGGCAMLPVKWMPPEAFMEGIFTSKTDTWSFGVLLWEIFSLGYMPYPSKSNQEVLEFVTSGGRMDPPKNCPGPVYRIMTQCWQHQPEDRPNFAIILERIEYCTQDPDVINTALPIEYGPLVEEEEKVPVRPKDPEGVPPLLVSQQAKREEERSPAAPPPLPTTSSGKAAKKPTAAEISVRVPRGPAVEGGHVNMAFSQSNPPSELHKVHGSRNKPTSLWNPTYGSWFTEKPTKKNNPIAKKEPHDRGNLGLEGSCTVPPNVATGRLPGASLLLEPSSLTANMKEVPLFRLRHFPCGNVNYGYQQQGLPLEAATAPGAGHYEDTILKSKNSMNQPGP
Procedure, shortened: (§2)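 Murine Ba/F3 cells transformed with the indicated TEL- or EML4-fusion kinases, seeded at 20,000 cells/well in RPMI/10% FCS. Viability by MTT/MTS; IC50 as concentration reducing viability to 50% of DMSO vehicle control.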

[5] = biological target: T4, BaF3-TEL-HCK (Homo sapiens, UniProt P08631); assay: as above; format: cell-based, murine; settings: 48 hours, cell viability, read-out: Tel-HCK IC50
T4 construct: fused on or other part: P41212 (Transcription factor ETV6)
T4 sequence (P08631 whole entry, change not shown, the tested form may be a part): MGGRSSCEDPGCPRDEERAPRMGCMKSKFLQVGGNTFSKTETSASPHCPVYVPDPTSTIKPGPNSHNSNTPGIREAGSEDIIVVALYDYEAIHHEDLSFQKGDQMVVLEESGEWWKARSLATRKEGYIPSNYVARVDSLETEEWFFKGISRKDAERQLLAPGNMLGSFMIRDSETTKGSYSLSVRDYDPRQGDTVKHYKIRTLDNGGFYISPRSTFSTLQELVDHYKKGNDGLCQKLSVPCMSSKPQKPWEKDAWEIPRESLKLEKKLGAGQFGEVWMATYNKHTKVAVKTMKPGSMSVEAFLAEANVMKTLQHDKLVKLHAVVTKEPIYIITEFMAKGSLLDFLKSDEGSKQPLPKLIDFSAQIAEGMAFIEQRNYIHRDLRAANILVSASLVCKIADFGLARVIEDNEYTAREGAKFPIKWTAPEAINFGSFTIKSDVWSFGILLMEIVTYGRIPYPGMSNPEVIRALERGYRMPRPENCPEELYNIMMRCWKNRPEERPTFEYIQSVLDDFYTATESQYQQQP
Procedure, shortened: as §2

[6] = biological target: T5, BaF3-TEL-INSR (Homo sapiens, UniProt P06213); assay: as above; format: cell-based, murine; settings: 48 hours, cell viability, read-out: Tel-INSR IC50
T5 construct: fused on or other part: P41212 (Transcription factor ETV6)
T5 sequence (P06213 whole entry, stated change not applied, the tested form may be a part): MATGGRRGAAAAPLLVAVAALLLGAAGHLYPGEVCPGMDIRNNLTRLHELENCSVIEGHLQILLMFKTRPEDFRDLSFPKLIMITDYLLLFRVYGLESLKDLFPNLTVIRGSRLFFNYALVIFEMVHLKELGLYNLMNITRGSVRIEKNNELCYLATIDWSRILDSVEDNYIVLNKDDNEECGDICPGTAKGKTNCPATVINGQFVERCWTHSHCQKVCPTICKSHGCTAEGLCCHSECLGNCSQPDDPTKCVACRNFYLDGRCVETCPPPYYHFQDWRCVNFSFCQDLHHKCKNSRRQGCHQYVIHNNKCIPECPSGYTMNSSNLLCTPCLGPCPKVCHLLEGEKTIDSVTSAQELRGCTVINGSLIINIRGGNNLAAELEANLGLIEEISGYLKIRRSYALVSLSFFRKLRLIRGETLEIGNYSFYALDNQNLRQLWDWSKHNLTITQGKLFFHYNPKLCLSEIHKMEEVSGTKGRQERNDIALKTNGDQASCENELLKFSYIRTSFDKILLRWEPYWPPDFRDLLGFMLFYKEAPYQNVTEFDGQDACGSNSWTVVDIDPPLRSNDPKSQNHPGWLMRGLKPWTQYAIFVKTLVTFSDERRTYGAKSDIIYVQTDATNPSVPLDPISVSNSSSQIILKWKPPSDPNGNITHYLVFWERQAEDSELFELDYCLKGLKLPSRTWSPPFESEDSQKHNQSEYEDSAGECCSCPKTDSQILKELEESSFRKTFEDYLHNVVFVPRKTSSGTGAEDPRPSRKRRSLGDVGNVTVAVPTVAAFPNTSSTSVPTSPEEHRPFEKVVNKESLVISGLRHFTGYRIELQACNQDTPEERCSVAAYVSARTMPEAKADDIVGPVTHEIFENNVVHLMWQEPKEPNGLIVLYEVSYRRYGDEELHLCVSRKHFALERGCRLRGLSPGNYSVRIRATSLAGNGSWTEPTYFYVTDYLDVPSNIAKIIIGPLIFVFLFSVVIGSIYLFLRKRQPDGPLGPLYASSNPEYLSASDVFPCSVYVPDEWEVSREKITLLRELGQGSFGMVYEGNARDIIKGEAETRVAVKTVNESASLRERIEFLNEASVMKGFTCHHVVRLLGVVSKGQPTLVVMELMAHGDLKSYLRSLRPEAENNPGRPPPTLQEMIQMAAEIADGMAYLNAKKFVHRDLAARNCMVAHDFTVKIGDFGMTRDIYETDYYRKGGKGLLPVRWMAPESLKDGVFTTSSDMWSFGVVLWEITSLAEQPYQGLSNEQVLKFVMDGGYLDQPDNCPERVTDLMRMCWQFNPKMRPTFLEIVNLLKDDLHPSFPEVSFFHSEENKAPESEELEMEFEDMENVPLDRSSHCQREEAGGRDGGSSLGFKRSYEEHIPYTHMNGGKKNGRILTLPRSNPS
Procedure, shortened: as §2

[7] = biological target: T6, BaF3-TEL-LYN (Homo sapiens, UniProt P07948); assay: as above; format: cell-based, murine; settings: 48 hours, cell viability, read-out: tel-LYN IC50
T6 construct: fused on or other part: P41212 (Transcription factor ETV6)
T6 sequence (P07948 whole entry, change not shown, the tested form may be a part): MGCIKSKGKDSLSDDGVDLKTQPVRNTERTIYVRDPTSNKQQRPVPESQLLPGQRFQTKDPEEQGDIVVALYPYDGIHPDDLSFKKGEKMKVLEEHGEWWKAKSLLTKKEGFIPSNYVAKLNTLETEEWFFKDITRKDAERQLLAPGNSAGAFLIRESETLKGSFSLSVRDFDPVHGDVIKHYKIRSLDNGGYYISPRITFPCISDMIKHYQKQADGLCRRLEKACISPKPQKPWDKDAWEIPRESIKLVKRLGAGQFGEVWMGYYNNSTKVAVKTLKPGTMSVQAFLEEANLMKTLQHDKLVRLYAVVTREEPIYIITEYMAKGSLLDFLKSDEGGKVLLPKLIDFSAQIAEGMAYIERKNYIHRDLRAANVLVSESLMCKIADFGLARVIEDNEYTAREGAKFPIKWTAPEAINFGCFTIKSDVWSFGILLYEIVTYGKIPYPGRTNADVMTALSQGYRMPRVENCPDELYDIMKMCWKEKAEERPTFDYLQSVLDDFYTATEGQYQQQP
Procedure, shortened: as §2

[8] = biological target: T7, BaF3-TEL-TIE1 (Homo sapiens, UniProt P35590); assay: as above; format: cell-based, murine; settings: 48 hours, cell viability, read-out: tel-TIE1 IC50
T7 construct: fused on or other part: P41212 (Transcription factor ETV6)
Procedure, shortened: as §2

[9] = test system: CML mice; assay: Mouse CML model, Kaplan-Meier survival; format: in vivo; settings: 10 mg/kg IA-9 by oral gavage twice a day vs vehicle and 50 mg/kg imatinib; FIG. 2
Protocol: The number (n) of mice treated in each group was indicated.
The activity of IA-9 to treat leukemia was tested in a mouse CML model as described ^4. Bone marrow cells from 5-fluorouracil (5-FU)-treated male BALB/c donor mice 5 days before were infected at a concentration of 1×10^6 cells/mL for 24 hours in a cocktail consisting of DMEM, 15% FCS, 5% WEHI-conditioned medium, 50% viral supernatant, 3 μg/mL polybrene, 2 mmol/L L-glutamine, PSA, 7 ng/mL IL-3, 12 ng/mL IL-6 and 56 ng/mL stem cell factor (SCF; R&D System). The infection was repeated once with freshly made retrovirus-containing cocktail as described above. The infected bone marrow cells were then washed once with phosphate-buffered saline and were injected into lethally irradiated (2 doses of 450 rads each dose administered 4 hours apart) syngeneic mice (female BALB/c; 6 to 8 weeks old) through the tail vein at 4×10^5 cells per mouse. Starting at […] bone marrow transplantation, the recipient mice were treated with vehicle (10% 1-methyl-2-pyrrolidinone:90% PEG-300), 50 mg/kg imatinib or 10 mg/kg IA-9 by oral gavage twice a day.

[10] = test system: NCI-H1975 and HCC827 cell lines; assay: Lung adenocarcinoma cell proliferation; format: cell-based; settings: FIG. 4
Protocol: The ability of IA-9 to treat lung adenocarcinoma was tested using the NCI-H1975 and HCC827 cell lines. Both cell lines harbor at least EGFR and Ras mutations and are multi-drug resistant. Cell proliferation was tested using methods described herein.

[11] = test system: MV-4-11; assay: Proliferation of FLT3-ITD-driven human AML cells; format: cell-based; settings: compared with Dasatinib; FIG. 5B
Protocol: A. Dose response curve of IA-9 in treating ITD cells is presented. ITD cells in the presence (ITD+) or absence of IL-3 (ITD−) were treated with 10 μM and 3-fold dilution series of IA-9. B. Dose response curve of IA-9 in treating MV-4-11 cells is shown. […].

Sequence of FLT3 (P36888 27-993): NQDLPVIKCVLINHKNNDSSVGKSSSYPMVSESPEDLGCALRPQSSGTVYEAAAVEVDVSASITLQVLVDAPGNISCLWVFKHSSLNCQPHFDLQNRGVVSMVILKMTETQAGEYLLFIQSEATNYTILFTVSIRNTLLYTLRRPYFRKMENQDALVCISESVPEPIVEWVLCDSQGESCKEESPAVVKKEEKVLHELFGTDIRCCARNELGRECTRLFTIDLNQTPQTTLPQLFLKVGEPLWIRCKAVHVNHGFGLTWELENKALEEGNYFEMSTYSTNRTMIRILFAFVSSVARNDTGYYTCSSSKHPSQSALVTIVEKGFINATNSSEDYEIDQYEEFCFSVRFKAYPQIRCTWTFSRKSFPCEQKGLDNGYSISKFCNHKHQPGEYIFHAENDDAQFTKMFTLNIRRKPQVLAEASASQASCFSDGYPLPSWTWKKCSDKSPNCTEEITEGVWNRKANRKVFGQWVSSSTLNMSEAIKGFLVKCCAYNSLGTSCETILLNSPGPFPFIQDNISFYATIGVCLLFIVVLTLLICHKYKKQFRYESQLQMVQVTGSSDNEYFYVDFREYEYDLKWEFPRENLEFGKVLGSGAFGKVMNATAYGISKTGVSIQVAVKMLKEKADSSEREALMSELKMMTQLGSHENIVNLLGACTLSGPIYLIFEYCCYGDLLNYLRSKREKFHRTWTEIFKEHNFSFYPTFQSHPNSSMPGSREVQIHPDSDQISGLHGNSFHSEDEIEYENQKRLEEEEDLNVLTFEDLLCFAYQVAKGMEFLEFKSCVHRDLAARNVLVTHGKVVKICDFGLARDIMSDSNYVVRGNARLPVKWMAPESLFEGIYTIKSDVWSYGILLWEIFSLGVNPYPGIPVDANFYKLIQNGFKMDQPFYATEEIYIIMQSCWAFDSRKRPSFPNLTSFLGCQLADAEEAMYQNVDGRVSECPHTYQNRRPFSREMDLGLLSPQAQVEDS

**Q.** `Cc1ccc(Nc2ncc3c(n2)N(C)CN(c2cc(NC(=O)c4cccc(C(F)(F)F)c4)ccc2C)C3)cn1` [IA-9, N-(4-methyl-3-(1-methyl-7-((6-methylpyridin-3-yl)amino)-1,4-dihydropyrimido[4,5-d]pyrimidin-3(2H)-yl)phenyl)-3-(trifluoromethyl)benzamide] was tested. Which remaining binding at 10 µM ([1]; FLT3, 10 μM, read-out: Percent Control) did it give?
**A.** 0.2%

**Q.** What about the “binding to FLT3 kinase (in words)” value ([1]; KINOMEscan data) of the same compound?
**A.** bind(s) FLT3 kinase strongly

**Q.** What about the GI50 [2] of the same compound?
**A.** 5 nM

**Q.** What about the GI50 [3] of the same compound?
**A.** 651 nM

**Q.** And the GI50 [4]?
**A.** 1470 nM

**Q.** And the GI50 [5]?
**A.** 639 nM

**Q.** What about the GI50 [6] of the same compound?
**A.** 869 nM

**Q.** And the GI50 [7]?
**A.** 225 nM

**Q.** And the GI50 [8]?
**A.** 519 nM

**Q.** What about the “anti-leukemia activity (Kaplan-Meier survival)” value [9] of the same compound?
**A.** significantly stronger anti-leukemia activity

**Q.** And the “reduction of proliferation of lung adenocarcinoma cells” value [10]?
**A.** reduce the proliferation of lung adenocarcinoma cells

**Q.** What about the “suppression of growth of MV-4-11” value [11] of the same compound?
**A.** much more effectively than did Dasatinib

— patent US10364247B2, “Preparation and use of novel protein kinase inhibitors” (Ruijin Hospital Affiliated to Shanghai Jiao Tong University …, priority 2015, dated 2019)
